Patent publication US10626112B2, “Heterocyclic sulfonamide derivative and medicine comprising same” (EA PHARMA CO., LTD., priority 2014, dated 2020)
pIC50: −log10 of the molar value.

Assays:
[1] = molecular target: T1, human TRPA1 (Homo sapiens (Human), UniProt O75762); assay: Measurement of TRPA1 antagonist activity (1): intracellular calcium increase; type: cell-based; conditions: 293T cells transfected with human TRPA1 expression plasmid; allylisothiocyanate 20 μM stimulation; intracellular calcium fluorescence; read-out: hTRPA1 IC50
Summary of the method: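 HEK293T cells transiently transfected with full-length human TRPA1, loaded with Calcium4 dye in HBSS/20 mM HEPES pH 7.2. Test compound preincubated 10 min, then allylisothiocyanate added at 20 μM final and fluorescence change followed for 5 min. IC50 from sigmoid fit of percent inhibition relative to agonist and buffer controls.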

[2] = molecular target: T1, human TRPA1; assay: Measurement of TRPA1 antagonist activity (2): as (1), different lot of human TRPA1 expression plasmid; type: cell-based; conditions: 293T cells transfected with human TRPA1, allylisothiocyanate 20 μM stimulation, calcium fluorescence, read-out: hTRPA1 IC50
Description: Human embryonic kidney-derived 293T cells were cultured in Dulbecco's Modified Eagle Medium containing 10% fetal bovine serum, 10 unit penicillin, and 10 μg streptomycin, plated on a petri dish having a diameter of 10 cm at 3×10^6 cells, and cultured for 24 hr in a CO2 incubator. A reduced serum medium (manufactured by Invitrogen, trade name: OPTI-MEM, 600 μL), a gene transfer reagent (manufactured by Mirus Bio, trade name: Mirus TransIT-293, 18 μL), and human TRPA1 expression plasmid (6 μg) were mixed, the total amount of the mixture was added to the cells on the petri dish to allow for gene transfer. The cells were recovered about for 8 hr later, plated on a poly-D-lysine coated 384 well black/clear bottom plate at 12,000 cells/well, and cultured overnight.
Measurement of Intracellular Calcium Increase
The 384 well plate was recovered, and the medium was removed. A calcium-bonded fluorescent indicator (manufactured by Molecular Device, trade name: Calcium4 Assay Kit, 38 μL) dissolved in assay buffer (1×HBSS, 20 mM HEPES, pH 7.2) was added, and the cells were stained in a CO2 incubator for 1 hr. The cells were taken out at room temperature, stood for not less than 15 min, a test substance (10 μL) was added by a platereader FDSS7000 (Hamamatsu Photonics K.K.) equipped with a 384ch dispenser. After 10 min, allylisothiocyanate (12 μL) was further added at a final concentration of 20 μM, and changes in the relative fluorescence intensity after addition of allylisothiocyanate were measured for 5 min.
Test Substance Preparation
The test substance was dissolved in dimethyl sulfoxide and serially diluted with an assay buffer containing 0.1% bovine serum albumin (1×HBSS, 20 mM HEPES, pH 7.2) to a 4.8-fold concentration of the evaluation concentration. Allylisothiocyanate, which is a known TRPA1 activator, was dissolved in dimethyl sulfoxide to 100 mM, and further diluted 5-fold (100 μM) of the final concentration, like the test substance.
Calculation of Antagonist Activity
Under the test substance-free conditions, the maximum variation range of the fluorescence intensity before and after allylisothiocyanate stimulation was defined to be 100% activity rate, and the variation range before and after buffer stimulation was defined as 0% activity rate. The activity rate on addition of the test substance was determined, and the numerical value obtained by subtracting the activity rate from 100 was defined to be an inhibitory rate. IC50, which is the concentration of the test substance necessary for reaching the 50% inhibitory rate, was calculated from the sigmoid approximate curve by a spreadsheet software Excel-Fit.
Measurement of TRPA1 Antagonist Activity (2)
By a method similar to that in Experimental Example 1-1 except that the lot of human […] expression plasmid is different, the TRPA1 antagonist activity of the test substance was measured.

T1 sequence (O75762 whole entry): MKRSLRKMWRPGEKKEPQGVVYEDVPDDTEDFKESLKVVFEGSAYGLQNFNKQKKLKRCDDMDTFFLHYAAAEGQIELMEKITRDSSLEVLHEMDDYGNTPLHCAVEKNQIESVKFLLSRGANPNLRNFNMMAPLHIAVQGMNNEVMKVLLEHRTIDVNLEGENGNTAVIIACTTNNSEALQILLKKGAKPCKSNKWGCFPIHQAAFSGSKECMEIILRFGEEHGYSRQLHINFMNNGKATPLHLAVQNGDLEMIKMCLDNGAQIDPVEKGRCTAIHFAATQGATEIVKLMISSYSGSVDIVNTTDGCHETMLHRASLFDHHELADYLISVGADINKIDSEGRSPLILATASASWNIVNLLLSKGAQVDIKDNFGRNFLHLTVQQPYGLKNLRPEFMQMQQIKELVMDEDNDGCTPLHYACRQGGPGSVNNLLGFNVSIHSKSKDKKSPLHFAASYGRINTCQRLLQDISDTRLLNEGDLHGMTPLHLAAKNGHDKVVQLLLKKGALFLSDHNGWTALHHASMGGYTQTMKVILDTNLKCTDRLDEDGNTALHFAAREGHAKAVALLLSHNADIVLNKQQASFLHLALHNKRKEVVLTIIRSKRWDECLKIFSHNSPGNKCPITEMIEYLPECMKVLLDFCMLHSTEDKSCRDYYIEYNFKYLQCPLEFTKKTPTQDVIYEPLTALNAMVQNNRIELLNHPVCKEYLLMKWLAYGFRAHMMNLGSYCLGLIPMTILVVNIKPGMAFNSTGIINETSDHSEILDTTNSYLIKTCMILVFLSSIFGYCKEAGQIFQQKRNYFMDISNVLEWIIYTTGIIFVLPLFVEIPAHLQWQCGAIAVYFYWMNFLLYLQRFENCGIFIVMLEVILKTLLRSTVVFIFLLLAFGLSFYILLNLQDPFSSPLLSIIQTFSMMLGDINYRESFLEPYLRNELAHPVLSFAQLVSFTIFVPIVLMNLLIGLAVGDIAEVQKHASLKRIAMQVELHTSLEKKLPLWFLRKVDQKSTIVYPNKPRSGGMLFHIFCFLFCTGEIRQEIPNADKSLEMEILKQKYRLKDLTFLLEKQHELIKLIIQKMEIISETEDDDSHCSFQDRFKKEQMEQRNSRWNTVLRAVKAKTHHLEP

Row | Molecule | pIC50 [1] | pIC50 [2]
1 | O=C(NCc1cccc(/C=C/c2ccc(C(F)(F)F)cc2)c1)[C@@H]1CCCN1S(=O)(=O)c1cc2ccccc2o1 [Example 317, (2S)-1-(benzofuran-2-ylsulfonyl)-N-[[3-[(E)-2-[4-(trifluoromethyl)phenyl]vinyl]phenyl]methyl]pyrrolidine-2-carboxamide] | 7.51 | 
2 | O=C(NCc1cccc(CCc2ccc(C(F)(F)F)cc2)c1)[C@@H]1CCCN1S(=O)(=O)c1cc2ccccc2o1 [Example 318, (2S)-1-(benzofuran-2-ylsulfonyl)-N-[[3-[2-[4-(trifluoromethyl)phenyl]ethyl]phenyl]methyl]pyrrolidine-2-carboxamide] | 7.85 | 
3 | O=C(NCc1cccc(Cc2ccccc2)c1)[C@@H]1CCCN1S(=O)(=O)c1cc2cc(F)ccc2o1 [Example 319, (2S)—N-[(3-benzylphenyl)methyl]-1-(5-fluorobenzofuran-2-yl)sulfonyl-pyrrolidine-2-carboxamide] | 7.57 | 
4 | O=C(NCc1cccc(CNc2ccc(C(F)(F)F)cn2)c1)[C@@H]1CCCN1S(=O)(=O)c1cc2ccccc2o1 [Example 320, (2S)-1-(benzofuran-2-ylsulfonyl)-N-[[3-[[[5-(trifluoromethyl)-2-pyridyl]amino]methyl]phenyl]methyl]pyrrolidine-2-carboxamide] | 6.04 | 
5 | O=C(NCc1cccc(Sc2ccc(C(F)(F)F)cc2)c1)[C@@H]1CCCN1S(=O)(=O)c1cc2ccccc2o1 [Example 321, (2S)-1-(benzofuran-2-ylsulfonyl)-N-[[3-[4-(trifluoromethyl)phenyl]sulfanylphenyl]methyl]pyrrolidine-2-carboxamide] | 7.48 | 
6 | O=C(NCc1cccc(S(=O)(=O)c2ccc(C(F)(F)F)cc2)c1)[C@@H]1CCCN1S(=O)(=O)c1cc2ccccc2o1 [Example 322, (2S)-1-(benzofuran-2-ylsulfonyl)-N-[[3-[4-(trifluoromethyl)phenyl]sulfonylphenyl]methyl]pyrrolidine-2-carboxamide] | 6.51 | 
7 | O=C(NCc1cccc([S+]([O-])c2ccc(C(F)(F)F)cc2)c1)[C@@H]1CCCN1S(=O)(=O)c1cc2ccccc2o1 (stereo partly drawn) [Example 323, (2S)-1-(benzofuran-2-ylsulfonyl)-N-[[3-[4-(trifluoromethyl)phenyl]sulfinylphenyl]methyl]pyrrolidine-2-carboxamide] | 6.70 | 
8 | O=C(NCc1cccc(S(=O)(=O)Cc2ccc(C(F)(F)F)cc2)c1)[C@@H]1CCCN1S(=O)(=O)c1cc2ccccc2o1 [Example 324, (2S)-1-(benzofuran-2-ylsulfonyl)-N-[[3-[[4-(trifluoromethyl)phenyl]methylsulfonyl]phenyl]methyl]pyrrolidine-2-carboxamide] | 6.31 | 
9 | O=C(NCc1cccc(C[S+]([O-])c2ccc(C(F)(F)F)cc2)c1)[C@@H]1CCCN1S(=O)(=O)c1cc2ccccc2o1 (stereo partly drawn) [Example 325, (2S)-1-(benzofuran-2-ylsulfonyl)-N-[[3-[[4-(trifluoromethyl)phenyl]sulfinylmethyl]phenyl]methyl]pyrrolidine-2-carboxamide] | 6.25 | 
10 | CNc1nc(CNC(=O)[C@@H]2CCCN2S(=O)(=O)c2cc3ccccc3o2)cc(-c2ccc(C(F)(F)F)cc2)n1 [Example 326, (2S)-1-(benzofuran-2-ylsulfonyl)-N-[[2-(methylamino)-6-[4-(trifluoromethyl)phenyl]pyrimidin-4-yl]methyl]pyrrolidine-2-carboxamide] | 7.54 | 
11 | O=C(NCc1cc(-c2ccc(C(F)(F)F)cc2)nc(OCc2ccccc2)n1)[C@@H]1CCCN1S(=O)(=O)c1cc2ccccc2o1 [Example 327, (2S)-1-(benzofuran-2-ylsulfonyl)-N-[[2-benzyloxy-6-[4-(trifluoromethyl)phenyl]pyrimidin-4-yl]methyl]pyrrolidine-2-carboxamide] | 8.37 | 
12 | O=C(NCc1cc(-c2ccc(C(F)(F)F)cc2)nc(N2CCC2)n1)[C@@H]1CCCN1S(=O)(=O)c1cc2ccccc2o1 [Example 328, (2S)-N-[[2-(azetidin-1-yl)-6-[4-(trifluoromethyl)phenyl]pyrimidin-4-yl]methyl]-1-(benzofuran-2-ylsulfonyl)pyrrolidine-2-carboxamide] |  | 7.80
13 | O=C(NCc1cc(-c2ccc(C(F)(F)F)cc2)nc(N2CCCC2)n1)[C@@H]1CCCN1S(=O)(=O)c1cc2ccccc2o1 [Example 329, (2S)-1-(benzofuran-2-ylsulfonyl)-N-[[2-pyrrolidin-1-yl-6-[4-(trifluoromethyl)phenyl]pyrimidin-4-yl]methyl]pyrrolidine-2-carboxamide] |  | 7.85
14 | O=C(NCc1cc(-c2ccc(C(F)(F)F)cc2)nc(N2CCOCC2)n1)[C@@H]1CCCN1S(=O)(=O)c1cc2ccccc2o1 [Example 330, (2S)-1-(benzofuran-2-ylsulfonyl)-N-[[2-morpholino-6-[4-(trifluoromethyl)phenyl]pyrimidin-4-yl]methyl]pyrrolidine-2-carboxamide] |  | 7.82
15 | O=C(NCc1ccnc(-c2ccc(C(F)F)cc2)c1)[C@@H]1CCCN1S(=O)(=O)c1cc2ccccc2o1 [Example 332, (2S)-1-(benzofuran-2-ylsulfonyl)-N-[[2-[4-(difluoromethyl)phenyl]-4-pyridyl]methyl]pyrrolidine-2-carboxamide] |  | 7.80
16 | O=C(NCc1cc(-c2ccc(C(F)F)cc2)ccn1)[C@@H]1CCCN1S(=O)(=O)c1cc2ccccc2o1 [Example 333, (2S)-1-(benzofuran-2-ylsulfonyl)-N-[[4-[4-(difluoromethyl)phenyl]-2-pyridyl]methyl]pyrrolidine-2-carboxamide] |  | 7.68
17 | CN(C)[C@@H]1C[C@@H](C(=O)NCc2ccnc(-c3ccc(C(F)(F)F)cc3O)c2)N(S(=O)(=O)c2cc3ccccc3o2)C1 [Example 334, (2S,4R)-1-(benzofuran-2-ylsulfonyl)-4-(dimethylamino)-N-[[2-[2-hydroxy-4-(trifluoromethyl)phenyl]-4-pyridyl]methyl]pyrrolidine-2-carboxamide] | 6.20 | 
18 | CC[C@H](NS(=O)(=O)c1cc2cc(F)ccc2o1)C(=O)NCc1cc(-c2ccc(C(F)(F)F)cn2)ccn1 [Example 335, (2S)-2-[(5-fluorobenzofuran-2-yl)sulfonylamino]-N-[[4-[5-(trifluoromethyl)-2-pyridyl]-2-pyridyl]methyl]butaneamide] | 7.27 | 
19 | CC(C)(C)OC(=O)c1ccc(CNC(=O)[C@@H]2CCCN2S(=O)(=O)c2cc3ccccc3o2)cc1-c1ccc(C(F)(F)F)cc1 [Example 336, tert-butyl 4-[[[(2S)-1-(benzofuran-2-ylsulfonyl)pyrrolidine-2-carbonyl]amino]methyl]-2-[4-(trifluoromethyl)phenyl]-benzoate] | 8.24 | 
20 | CN(C)C(=O)c1ccc(CNC(=O)[C@@H]2CCCN2S(=O)(=O)c2cc3ccccc3o2)cc1-c1ccc(C(F)(F)F)cc1 [Example 337, (2S)-1-(benzofuran-2-ylsulfonyl)-N-[[4-(dimethylcarbamoyl)-3-[4-(trifluoromethyl)phenyl]-phenyl]methyl]pyrrolidine-2-carboxamide] | 7.66 | 
21 | (2S)-1-(5-fluorobenzofuran-2-yl)sulfonyl-N-[[3-[2-methyl-5-(trifluoromethyl)pyrazol-3-yl]phenyl]methyl]pyrrolidine-2-carboxamide [Example 164] | 8.15 | 
22 | (2S)-1-(5-fluorobenzofuran-2-yl)sulfonyl-N-[[3-[[2-morpholino-4-pyridyl)-methoxy]phenyl]-methyl]pyrrolidine-2-carboxamide [Example 18] | 7.92 | 
23 | (2S)-1-(5-fluorobenzofuran-2-yl)sulfonyl-N-[[3-[[4-(trifluoromethyl)phenyl]methoxy]-phenyl]methyl]pyrrolidine-2-carboxamide [Example 41] | 8.89 | 
24 | (2S)-1-(benzofuran-2-ylsulfonyl)-N-[[3-[6-(trifluoromethyl)-3-pyridyl]phenyl]methyl]pyrrolidine-2-carboxamide [Example 79] | 8.80 | 
